Source: US4087520A, “Lowering blood pressure with new L-3-(3,4-dihydroxyphenyl)-2-methyl-alanine peptides” (Boehringer Mannheim GmbH, priority 1975, dated 1978)

tested on: blood pressure of rats with arterial high pressure; test: Blood pressure depression in awake hypertensive rats (11-deoxycorticosteroneacetate plus common salt), direct arterial catheter measurement; assay type: in vivo; conditions: hypertensive rats (10% sodium chloride in feed + 11-deoxycorticosteroneacetate), 0.6 millimole/kg perorally in 1% methyl cellulose, 4 hours after oral application, median of at least 6 measurements
Method: The test animals were rats into which arterial catheters had been implanted in a sterile operation via the arteria femoralis into the aorta. It was possible to measure the animals' blood pressure in the awake state directly in the blood with a transducer (Statham Transducer Type TP 23 D 6) via a carrier frequency measuring bridge. The animals were treated by administration of 10% common salt (sodium chloride) in their feed and, starting on the sixth week of their life, two injections per week of 5 mg at a time of 11-deoxycorticosteroneacetate per animal and thus developed an arterial high pressure in the median with values of […]. The test compounds were administered to the animals as follows: After the blood pressure control values had been determined, the animals received the test compound perorally suspended in 10 ml of 1% methyl cellusose solution in a dosage of 0.6 millimole/kg and measurements were taken 4 hours after oral application of the substance.
The values set forth in the Table represent in each case the median of at least 6 individual measurements of blood pressure depression (in mm Hg) per applied substance.

`C[C@@](Cc1ccc(O)c(O)c1)(NC(=O)CN)C(=O)O` [Glycyl-L-3-(3,4-dihydroxyphenyl)-2-methyl-alanine] and `C[C@H](N)C(=O)N[C@@](C)(Cc1ccc(O)c(O)c1)C(=O)O` [L-Alanyl-L-3-(3,4-dihydroxyphenyl)-2-methyl-alanine] are within error of each other in “Blood Pressure Reduction” value: 37 ± 9.1 mm Hg for the first, 51 ± 6.0 mm Hg for the second.

`C[C@H](N)C(=O)N[C@@H](C)C(=O)N[C@@](C)(Cc1ccc(O)c(O)c1)C(=O)O` [L-Alanyl-L-alanyl-L-3-(3,4-dihydroxyphenyl)-2-methylalanine] and `C[C@@](Cc1ccc(O)c(O)c1)(NC(=O)[C@@H](N)CO)C(=O)O` [L-Seryl-L-3-(3,4-dihydroxyphenyl)-2-methyl-alanine] are within error of each other in “Blood Pressure Reduction” value: 58 ± 5.8 mm Hg for the first, 52 ± 7.5 mm Hg for the second.

`C[C@](N)(Cc1ccc(O)c(O)c1)C(=O)O` [α-Methyl-Dopa, L-3-(3,4-dihydroxyphenyl)-2-methyl-alanine] was tested, and the “Blood Pressure Reduction” value was 33 ± 4.9 mm Hg.
